Like-named read-outs stand apart in the source and are kept apart here.
Key:
ROCK1 = ROCK1 (Homo sapiens (Human), UniProt Q13464); test: ROCK assay (Caliper LABCHIP peptide phosphorylation), ROCK1; assay type: biochemical; details: 5 μM ATP, 1.5 μM peptide substrate;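 also: Read-out is separation of phosphorylated from unphosphorylated peptide, with kinase activity inhibition computed at every concentration of a dose-response series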
ROCK2 = ROCK2 (Homo sapiens (Human), UniProt O75116); test: ROCK assay (Caliper LABCHIP peptide phosphorylation), ROCK2; assay type: biochemical; details: 5 μM ATP, 1.5 μM peptide substrate;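 also: reaction stopped with EDTA, then phosphorylated and unphosphorylated peptide resolved by microfluidic electrophoresis, kinase inhibition computed at each compound concentration in dose-response series, DMSO under 2%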
[1] = test system: rat models of hypertension; details: cited from earlier work
neointimal formation = details: rats, balloon injury model; cited from earlier work
[2] = test system: congestive heart failure in Dahl salt-sensitive rats; details: cited from earlier work
[3] = test system: IL-1 beta-induced coronary stenosis; details: long term treatment; cited from earlier work

Chain of ROCK2 (O75116 whole entry, species assumed): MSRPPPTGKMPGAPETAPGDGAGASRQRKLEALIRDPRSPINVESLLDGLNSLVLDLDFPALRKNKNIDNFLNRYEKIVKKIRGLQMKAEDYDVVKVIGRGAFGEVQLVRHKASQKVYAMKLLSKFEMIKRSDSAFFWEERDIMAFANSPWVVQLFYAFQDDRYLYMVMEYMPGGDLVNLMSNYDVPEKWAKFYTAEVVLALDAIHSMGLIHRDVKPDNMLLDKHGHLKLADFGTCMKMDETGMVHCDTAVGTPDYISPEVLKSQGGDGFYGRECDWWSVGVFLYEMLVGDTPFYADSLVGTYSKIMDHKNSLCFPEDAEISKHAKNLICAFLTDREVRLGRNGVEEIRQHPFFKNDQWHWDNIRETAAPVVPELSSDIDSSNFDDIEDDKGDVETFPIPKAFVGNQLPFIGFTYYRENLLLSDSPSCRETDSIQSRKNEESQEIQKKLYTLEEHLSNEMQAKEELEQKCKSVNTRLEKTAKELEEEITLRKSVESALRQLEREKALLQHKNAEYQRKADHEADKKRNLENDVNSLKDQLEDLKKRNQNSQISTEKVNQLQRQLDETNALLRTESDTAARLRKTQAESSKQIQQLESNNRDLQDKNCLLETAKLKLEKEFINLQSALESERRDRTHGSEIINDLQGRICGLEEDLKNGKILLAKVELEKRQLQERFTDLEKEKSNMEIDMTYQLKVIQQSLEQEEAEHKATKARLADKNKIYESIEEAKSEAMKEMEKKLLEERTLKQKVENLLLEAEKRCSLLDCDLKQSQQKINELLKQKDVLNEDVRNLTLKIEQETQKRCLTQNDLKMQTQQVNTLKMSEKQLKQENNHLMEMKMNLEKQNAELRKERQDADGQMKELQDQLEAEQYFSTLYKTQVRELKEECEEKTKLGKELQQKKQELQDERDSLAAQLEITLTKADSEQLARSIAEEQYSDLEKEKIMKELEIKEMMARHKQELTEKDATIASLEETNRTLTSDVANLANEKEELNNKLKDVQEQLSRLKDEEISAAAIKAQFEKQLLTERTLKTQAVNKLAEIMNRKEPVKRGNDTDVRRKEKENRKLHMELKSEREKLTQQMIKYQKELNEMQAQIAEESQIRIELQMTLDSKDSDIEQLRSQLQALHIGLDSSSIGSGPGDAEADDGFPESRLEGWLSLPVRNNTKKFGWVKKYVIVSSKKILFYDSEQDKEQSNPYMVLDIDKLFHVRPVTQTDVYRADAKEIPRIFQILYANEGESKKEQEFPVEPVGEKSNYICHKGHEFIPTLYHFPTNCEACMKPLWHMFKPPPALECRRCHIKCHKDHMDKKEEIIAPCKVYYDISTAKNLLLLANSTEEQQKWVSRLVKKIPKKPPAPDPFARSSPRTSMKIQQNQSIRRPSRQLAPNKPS
Chain of ROCK1 (Q13464 whole entry, species assumed): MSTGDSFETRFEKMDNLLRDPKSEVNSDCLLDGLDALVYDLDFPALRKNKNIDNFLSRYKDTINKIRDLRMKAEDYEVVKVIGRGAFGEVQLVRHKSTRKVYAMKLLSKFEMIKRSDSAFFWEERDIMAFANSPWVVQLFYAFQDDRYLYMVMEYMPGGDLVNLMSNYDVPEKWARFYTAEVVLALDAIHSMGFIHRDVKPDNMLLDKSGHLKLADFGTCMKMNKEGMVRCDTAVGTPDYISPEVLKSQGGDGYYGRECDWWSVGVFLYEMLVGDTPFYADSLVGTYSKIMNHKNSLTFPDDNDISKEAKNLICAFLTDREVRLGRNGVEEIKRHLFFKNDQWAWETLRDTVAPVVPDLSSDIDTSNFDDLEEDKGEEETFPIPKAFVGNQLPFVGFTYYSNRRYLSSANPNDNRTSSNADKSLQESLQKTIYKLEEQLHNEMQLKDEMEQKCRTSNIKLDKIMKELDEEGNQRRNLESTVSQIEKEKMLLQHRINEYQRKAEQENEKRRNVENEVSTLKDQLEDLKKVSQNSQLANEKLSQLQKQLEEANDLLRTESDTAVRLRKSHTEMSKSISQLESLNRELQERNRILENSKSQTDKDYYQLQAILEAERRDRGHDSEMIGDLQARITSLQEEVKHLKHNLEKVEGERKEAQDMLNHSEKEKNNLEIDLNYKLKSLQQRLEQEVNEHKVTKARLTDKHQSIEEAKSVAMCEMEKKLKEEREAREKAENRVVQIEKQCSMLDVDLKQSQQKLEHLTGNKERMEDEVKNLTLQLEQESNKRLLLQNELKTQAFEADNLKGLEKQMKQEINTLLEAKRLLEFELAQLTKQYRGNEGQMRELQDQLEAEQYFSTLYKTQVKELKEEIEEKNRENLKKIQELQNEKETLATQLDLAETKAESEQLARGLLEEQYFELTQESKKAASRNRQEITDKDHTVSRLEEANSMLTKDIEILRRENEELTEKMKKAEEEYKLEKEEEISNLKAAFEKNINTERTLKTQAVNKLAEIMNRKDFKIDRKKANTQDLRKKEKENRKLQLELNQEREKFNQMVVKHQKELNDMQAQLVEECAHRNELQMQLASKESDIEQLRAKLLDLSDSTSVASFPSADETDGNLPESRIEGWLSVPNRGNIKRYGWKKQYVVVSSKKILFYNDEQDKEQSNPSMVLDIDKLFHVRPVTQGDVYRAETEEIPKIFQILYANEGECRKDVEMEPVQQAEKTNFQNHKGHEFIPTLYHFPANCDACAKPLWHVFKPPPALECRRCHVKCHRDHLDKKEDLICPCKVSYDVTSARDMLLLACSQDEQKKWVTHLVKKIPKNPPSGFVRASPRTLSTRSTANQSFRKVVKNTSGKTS

Compound	IC50 (ROCK1)	IC50 (ROCK2)	other results
CC(O)c1cc(C(=O)N[C@H](C)c2ccccc2F)ccc1-c1cn[nH]c1 (stereo partly drawn) [Example 282, N-[(1R)-1-(2-fluorophenyl)ethyl]-3-(1-hydroxyethyl)-4-(1H-pyrazol-4-yl)benzamide]	242 nM	336 nM	–
CC(O)c1cc(C(=O)N[C@H](C)c2ccccc2F)ccc1-c1cn[nH]c1 (stereo partly drawn) [Example 283, N-[(1R)-1-(2-fluorophenyl)ethyl]-3-(1-hydroxyethyl)-4-(1H-pyrazol-4-yl)benzamide]	50.6 nM	5.43 nM	–
CCC(O)c1cc(C(=O)N[C@H](C)c2ccccc2)ccc1-c1cn[nH]c1 (stereo partly drawn) [Example 284, 3-(1-hydroxypropyl)-N-[(1R)-1-phenylethyl]-4-(1H-pyrazol-4-yl)benzamide]	842 nM	183 nM	–
CCC(O)c1cc(C(=O)N[C@H](C)c2ccccc2)ccc1-c1cn[nH]c1 (stereo partly drawn) [Example 285, 3-(1-hydroxypropyl)-N-[(1R)-1-phenylethyl]-4-(1H-pyrazol-4-yl)benzamide]	> 2000 nM	1480 nM	–
CCC(O)c1cc(C(=O)N[C@H](C)c2ccccc2)ccc1-c1cn[nH]c1 (stereo partly drawn) [Example 286, 3-(1-hydroxypropyl)-N-[(1R)-1-phenylethyl]-4-(1H-pyrazol-4-yl)benzamide]	97.6 nM	190 nM	–
CC(O)c1cc(C(=O)NC(C)c2c(F)cccc2F)ccc1-c1cn[nH]c1 (centres unmarked) [Example 287, N-[1-(2,6-difluorophenyl)ethyl]-3-(1-hydroxyethyl)-4-(1H-pyrazol-4-yl)benzamide]	111 nM	27.8 nM	–
CC(O)c1cc(C(=O)NC(C)c2c(F)cccc2F)ccc1-c1cn[nH]c1 (centres unmarked) [Example 288, N-[1-(2,6-difluorophenyl)ethyl]-3-(1-hydroxyethyl)-4-(1H-pyrazol-4-yl)benzamide]	150 nM	446 nM	–
CC(O)c1cc(C(=O)NCc2c(F)cccc2Cl)ccc1-c1cn[nH]c1 (centres unmarked) [Example 289, N-[(2-chloro-6-fluorophenyl)methyl]-3-(1-hydroxyethyl)-4-(1H-pyrazol-4-yl)benzamide]	275 nM	74.3 nM	–
CC(O)c1cc(C(=O)NCc2c(F)cccc2Cl)ccc1-c1cn[nH]c1 (centres unmarked) [Example 290, N-[(2-chloro-6-fluorophenyl)methyl]-3-(1-hydroxyethyl)-4-(1H-pyrazol-4-yl)benzamide]	1950 nM	1760 nM	–
CC(O)c1cc(C(=O)NCc2c(F)cccc2Cl)ccc1-c1cn[nH]c1 (centres unmarked) [Example 291, N-[(2-chloro-6-fluorophenyl)methyl]-3-(1-hydroxyethyl)-4-(1H-pyrazol-4-yl)benzamide]	138 nM	104 nM	–
CC(O)c1cc(C(=O)N[C@H](C)c2c(F)cccc2F)ccc1-c1cn[nH]c1 (stereo partly drawn) [Example 292, N-[(1R)-1-(2,6-difluorophenyl)ethyl]-3-(1-hydroxyethyl)-4-(1H-pyrazol-4-yl)benzamide]	1140 nM	1510 nM	–
CC(O)c1cc(C(=O)N[C@H](C)c2c(F)cccc2F)ccc1-c1cn[nH]c1 (stereo partly drawn) [Example 293, N-[(1R)-1-(2,6-difluorophenyl)ethyl]-3-(1-hydroxyethyl)-4-(1H-pyrazol-4-yl)benzamide]	98.2 nM	16.2 nM	–
CC(=O)c1cc(C(=O)N[C@H](C)c2ccccc2)ccc1-c1cn[nH]c1 [Example 294, (R)-3-Acetyl-N-(1-phenylethyl)-4-(1H-pyrazol-4-yl)benzamide]	> 2000 nM	613 nM	–
COC(=O)c1cc(C(=O)N[C@H](C)c2ccc(F)cc2)ccc1-c1cn[nH]c1 [Example 295, (R)-Methyl 5-((1-(4-fluorophenyl)ethyl)carbamoyl)-2-(1H-pyrazol-4-yl)benzoate]	1700 nM	563 nM	–
C[C@@H](NC(=O)c1ccc(-c2cn[nH]c2)c(N(C)C)c1)c1ccc(F)cc1 [Example 296, (R)-3-(Dimethylamino)-N-(1-(4-fluorophenyl)ethyl)-4-(1H-pyrazol-4-yl)benzamide]	145 nM	54.6 nM	–
CNc1cc(C(=O)N[C@H](C)c2ccc(F)cc2)ccc1-c1cn[nH]c1 [Example 297, (R)-N-(1-(4-Fluorophenyl)ethyl)-3-(methylamino)-4-(1H-pyrazol-4-yl)benzamide]	1760 nM	518 nM	–
COc1cc(C(=O)N(Cc2ccccc2F)CC(C)(C)O)ccc1-c1cn[nH]c1 [Example 298, N-(2-Fluorobenzyl)-N-(2-hydroxy-2-methylpropyl)-3-methoxy-4-(1H-pyrazol-4-yl)benzamide]	839 nM	667 nM	–
COC(=O)c1n[nH]cc1-c1ccc(C(=O)N[C@H](C)c2cccc(OC)c2)c(OC)c1 [Example 302, (R)-Methyl 4-(3-methoxy-4-((1-(3-methoxyphenyl)ethyl)carbamoyl)phenyl)-1H-pyrazole-3-carboxylate]	70.9 nM	69.6 nM	–

Compound	IC50 (ROCK1)	IC50 (ROCK2)	other results
COc1cccc([C@@H](C)NC(=O)c2ccc(-c3c[nH]nc3C#N)cc2OC)c1 [Example 303, 4-(3-Cyano-1H-pyrazol-4-yl)-2-methoxy-N-[(1R)-1-(3-methoxyphenyl)ethyl]benzamide]	30.6 nM	21 nM	–
COc1cccc([C@@H](C)NC(=O)c2ccc(-c3c(C)n[nH]c3C)cc2OC)c1 [Example 304, 4-(3,5-Dimethyl-1H-pyrazol-4-yl)-2-methoxy-N-[(1R)-1-(3-methoxyphenyl)ethyl]benzamide]	133 nM	24.5 nM	–
COc1cccc([C@@H](C)NC(=O)c2ccc(-c3c[nH]nc3C)cc2OC)c1 [Example 305, 4-(3-Methyl-1H-pyrazol-4-yl)-2-methoxy-N-[(1R)-1-(3-methoxyphenyl)ethyl]benzamide]	2.15 nM	0.65 nM	–
COc1cccc([C@@H](C)NC(=O)c2ccc(-c3c[nH]nc3CO)cc2OC)c1 [Example 306, (R)-4-(3-(Hydroxymethyl)-1H-pyrazol-4-yl)-2-methoxy-N-(1-(3-methoxyphenyl)ethyl)benzamide]	63.8 nM	43.5 nM	–
COc1cccc([C@@H](C)NC(=O)c2ccc(-c3c[nH]nc3C(C)O)cc2OC)c1 (stereo partly drawn) [Example 307, 4-(3-(1-Hydroxyethyl)-1H-pyrazol-4-yl)-2-methoxy-N-((R)-1-(3-methoxyphenyl)ethyl)benzamide]	544 nM	205 nM	–
COc1cccc([C@@H](C)NC(=O)c2ccc(-c3cn[nH]c3)cc2OCCN(C)C)c1 [Example 308, 2-[2-(Dimethylamino)ethoxy]-N-[(1R)-1-(3-methoxyphenyl)ethyl]-4-(1H-pyrazol-4-yl)benzamide]	284 nM	37.5 nM	–
Cc1n[nH]cc1-c1cc(OCCN(C)C)c(C(=O)N[C@H](C)c2ccccc2)cc1F [Example 309, 2-[2-(dimethylamino)ethoxy]-5-fluoro-4-(3-methyl-1H-pyrazol-4-yl)-N-[(1R)-1-phenylethyl]benzamide]	> 2000 nM	771 nM	–
COc1cccc([C@@H](C)NC(=O)c2ccc(-c3c[nH]nc3C)cc2OCCN(C)C)c1 [Example 311, 2-[2-(dimethylamino)ethoxy]-N-[(1R)-1-(3-methoxyphenyl)ethyl]-4-(3-methyl-1H-pyrazol-4-yl)benzamide]	22.3 nM	34.8 nM	–
COc1cc(-c2cn[nH]c2)cc(F)c1C(=O)N[C@H](C)c1ccccc1 [Example 312, 2-fluoro-6-methoxy-N-[(1R)-1-phenylethyl]-4-(1H-pyrazol-4-yl)benzamide]	> 2000 nM	1490 nM	–
CCOc1cc(-c2cn[nH]c2)ccc1C(=O)N[C@H](C)c1cccc(OC)c1 [Example 313, 2-ethoxy-N-[(1R)-1-(3-methoxyphenyl)ethyl]-4-(1H-pyrazol-4-yl)benzamide]	21.1 nM	1.6 nM	–
COCCOc1cc(-c2cn[nH]c2)ccc1C(=O)N[C@H](C)c1cccc(OC)c1 [Example 314, 2-(2-methoxyethoxy)-N-[(1R)-1-(3-methoxyphenyl)ethyl]-4-(1H-pyrazol-4-yl)benzamide]	16.8 nM	3.37 nM	–
COc1cccc([C@@H](C)NC(=O)c2ccc(-c3cn[nH]c3)cc2OCCO)c1 [Example 315, 2-(2-hydroxyethoxy)-N-[(1R)-1-(3-methoxyphenyl)ethyl]-4-(1H-pyrazol-4-yl)benzamide]	7.19 nM	2.31 nM	–
COc1ccc(F)c(C(C)NC(=O)c2ccc(-c3cn[nH]c3)c(C(C)O)c2)c1 (centres unmarked) [Example 316, N-[1-(2-fluoro-5-methoxyphenyl)ethyl]-3-(1-hydroxyethyl)-4-(1H-pyrazol-4-yl)benzamide]	82.2 nM	10.9 nM	–
C[C@@H](N)[C@H]1CC[C@H](C(=O)Nc2ccncc2)CC1 [Example Y-27632]	–	–	blood pressure ([1]; control rats): only a minor effect on blood pressure; blood pressure ([1]; spontaneously hypertensive rat, renal hypertensive rat and deoxycortisone acetate salt hypertensive rat models): significantly decrease blood pressure; neointimal formation (neointimal formation): inhibited neointimal formation; ventricular hypertrophy, fibrosis and function [2]: improve ventricular hypertrophy, fibrosis and function
O=S(=O)(c1cccc2cnccc12)N1CCCNCC1 [fasudil]	–	–	coronary stenosis and coronary constrictive remodeling [3]: progressively reduce coronary stenosis, as well as promote a regression of coronary constrictive remodeling
N-(3- chlorobenzyl)- 3-methoxy-4- (1H-pyrazol-4- yl)benzamide [Example 34]	124 nM	49.7 nM	–
N-(4- chlorobenzyl)- 3-methoxy-4- (1H-pyrazol-4- yl)benzamide [Example 33]	26.5 nM	4.93 nM	–
